The experiment deals with T1, SGLT2 (sodium-glucose cotransporter 2) (Homo sapiens, UniProt P31639).
T1 sequence (P31639 1-672): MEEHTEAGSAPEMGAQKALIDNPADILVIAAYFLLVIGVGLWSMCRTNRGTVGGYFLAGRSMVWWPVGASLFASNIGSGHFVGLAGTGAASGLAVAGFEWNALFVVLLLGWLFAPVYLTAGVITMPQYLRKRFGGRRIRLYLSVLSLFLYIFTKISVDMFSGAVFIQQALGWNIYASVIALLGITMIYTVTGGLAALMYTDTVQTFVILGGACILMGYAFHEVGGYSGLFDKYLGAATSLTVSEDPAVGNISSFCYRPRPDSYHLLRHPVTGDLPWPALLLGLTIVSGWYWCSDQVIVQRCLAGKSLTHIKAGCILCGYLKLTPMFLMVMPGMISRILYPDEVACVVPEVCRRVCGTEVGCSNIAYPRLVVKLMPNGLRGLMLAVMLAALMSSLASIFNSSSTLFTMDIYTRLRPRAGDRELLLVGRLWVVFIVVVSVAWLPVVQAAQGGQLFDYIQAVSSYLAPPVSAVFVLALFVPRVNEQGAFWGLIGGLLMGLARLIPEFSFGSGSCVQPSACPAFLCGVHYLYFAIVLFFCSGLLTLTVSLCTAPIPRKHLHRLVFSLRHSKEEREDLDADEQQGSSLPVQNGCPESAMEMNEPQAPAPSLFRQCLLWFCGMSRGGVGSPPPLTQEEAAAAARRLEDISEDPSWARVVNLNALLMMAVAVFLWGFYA
The experiment can be described thus: inhibition of […]-alpha-methyl-D-glucopyranoside uptake in HEK293-hSGLT2 cells. Type of experiment: cell-based.

Data on 1 compound can be found in publication PMC7554656 (Molecular Metabolism, 2020).

Molecules are shown by their SMILES.

`OC[C@H]1O[C@@H](c2ccc(Cl)c(Cc3ccc(O[C@H]4CCOC4)cc3)c2)[C@H](O)[C@@H](O)[C@@H]1O` [empagliflozin] gave an EC50 of 4.3 nM.

As a reminder, the EC50 is the concentration giving half of the maximal effect. Higher therefore signals weaker potency.
